Like-named read-outs stand apart in the source and are kept apart here.
Target: T1, FMS (h) (Homo sapiens, UniProt P07333)
T1 construct: purchased Reaction Biology Corp. (Kinase HotSpot service)
Experiment: Kinase HotSpot radiometric assay, activity on CSF-1R (FMS)
Format: biochemical

[1] = Table 3, read-out: IC50 (M) on FMS

T1 sequence (P07333 20-972): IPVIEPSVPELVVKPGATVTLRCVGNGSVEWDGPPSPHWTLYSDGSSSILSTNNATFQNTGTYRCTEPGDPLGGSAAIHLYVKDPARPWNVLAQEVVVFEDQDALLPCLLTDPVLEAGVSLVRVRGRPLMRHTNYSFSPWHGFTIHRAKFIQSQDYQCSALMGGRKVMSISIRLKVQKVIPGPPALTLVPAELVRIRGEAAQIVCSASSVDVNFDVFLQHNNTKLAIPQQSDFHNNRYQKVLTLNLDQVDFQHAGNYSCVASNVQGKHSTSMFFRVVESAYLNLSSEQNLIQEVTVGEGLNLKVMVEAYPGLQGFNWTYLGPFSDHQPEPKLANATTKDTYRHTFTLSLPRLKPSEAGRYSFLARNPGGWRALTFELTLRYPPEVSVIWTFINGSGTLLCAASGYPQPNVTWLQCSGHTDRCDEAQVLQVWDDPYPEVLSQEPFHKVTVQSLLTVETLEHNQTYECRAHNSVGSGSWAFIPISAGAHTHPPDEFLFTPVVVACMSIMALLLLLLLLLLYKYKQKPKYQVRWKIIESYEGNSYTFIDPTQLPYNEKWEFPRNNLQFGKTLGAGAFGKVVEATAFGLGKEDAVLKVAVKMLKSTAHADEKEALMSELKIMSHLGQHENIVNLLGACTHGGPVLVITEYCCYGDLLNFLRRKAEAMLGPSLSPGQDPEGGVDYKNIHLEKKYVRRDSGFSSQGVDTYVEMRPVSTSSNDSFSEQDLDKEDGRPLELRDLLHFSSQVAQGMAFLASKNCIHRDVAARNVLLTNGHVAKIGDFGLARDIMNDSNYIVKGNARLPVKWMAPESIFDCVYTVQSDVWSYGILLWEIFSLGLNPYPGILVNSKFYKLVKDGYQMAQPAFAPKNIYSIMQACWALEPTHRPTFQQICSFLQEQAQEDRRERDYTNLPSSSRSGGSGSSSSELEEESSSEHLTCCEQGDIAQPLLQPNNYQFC

Row | SMILES | IC50 (Table 1, read-out: IC50) | IC50 [1] | IC50 (Table 2, read-out: IC50 (μm))
1 | Cc1cc(C(=O)Nc2ccc(C3CCNCC3)cc2-c2cncnc2)no1 [Compound 62b, 5-methyl-N-(4-(piperidin-4-yl)-2-(pyrimidin-5-yl)phenyl)isoxazole-3-carboxamide] | > 1e-06 M | > 1e-06 M | –
2 | Cc1cc(C(=O)Nc2cc(NC(=O)c3ccc4nn[nH]c4c3)ccc2C)no1 [Compound 5r, N-(5-(1H-benzo[d][1,2,3]triazole-6-carboxamido)-2-methylphenyl)-5-methylisoxazole-3-carboxamide] | – | > 1e-06 M | –
3 | Cc1cc(C(=O)Nc2ccc(C3CC(C)(C)NC(C)(C)C3)cc2C2=CCC(C)(C)CC2)no1 [Compound 92c, N-(4′,4′-dimethyl-5-(2,2,6,6-tetramethylpiperidin-4-yl)-2,3′,4′,5′-tetrahydro-[1,1′-biphenyl]-2-yl)-5-methylisoxazole-3-carboxamide] | – | < 1e-07 M | < 1e-07 M
4 | Cc1cc(C(=O)Nc2cc(NC(=O)c3cc(N4CCC([N+](C)(C)C)C4)cc(C(F)(F)F)c3)ccc2C)no1 (stereo not shown) [Compound 5m, N,N,N-trimethyl-1-(3-((4-methyl-3-(5-methylisoxazole-3-carboxamido)phenyl)carbamoyl)-5-(trifluoromethyl)phenyl)pyrrolidin-3-aminium] | – | > 1e-06 M | –
5 | Cc1cc(C(=O)Nc2ccc(C3CC[N+](C)(C)CC3)cc2C2CCCCC2)no1 [Compound 81b, 4-(3-cyclohexyl-4-(5-methylisoxazole-3-carboxamido)phenyl)-1,1-dimethylpiperidin-1-ium] | – | 1e-07 to 1e-06 M | –
6 | Cc1cc(C(=O)Nc2ccc(NC3CCOCC3)nc2C)no1 [Compound 17b, 5-methyl-N-(2-methyl-6-((tetrahydro-2H-pyran-4-yl)amino)pyridin-3-yl)isoxazole-3-carboxamide] | – | < 1e-07 M | –
7 | Cc1cc(C(=O)Nc2cc(NC(=O)c3cnn(-c4ccccc4)c3C(F)(F)F)ccc2C)no1 [Compound 5s, 5-methyl-N-(2-methyl-5-(1-phenyl-5-(trifluoromethyl)-1H-pyrazole-4-carboxamido)phenyl)isoxazole-3-carboxamide] | – | > 1e-06 M | –
8 | Cc1cc(C(=O)Nc2cc(NC(=O)c3ccc(-c4ccccc4)cc3)ccc2C)no1 [Compound 5f, N-(5-([1,1′-biphenyl]-4-carboxamido)-2-methylphenyl)-5-methylisoxazole-3-carboxamide] | – | > 1e-06 M | –
9 | Cc1cc(C(=O)Nc2ccc(C3CC(C)(C)NC(C)(C)C3)cc2C2=CCCCC2)no1 [Compound 92a, 5-methyl-N-(5-(2,2,6,6-tetramethylpiperidin-4-yl)-2′,3′,4′,5′-tetrahydro-[1,1′-biphenyl]-2-yl)isoxazole-3-carboxamide] | – | < 1e-07 M | 1e-07 to 1e-06 M
10 | Cc1cc(C(=O)Nc2cc(NC(=O)c3ccc4cn[nH]c4c3)ccc2C)no1 [Compound 5t, N-(5-(1H-indazole-6-carboxamido)-2-methylphenyl)-5-methylisoxazole-3-carboxamide] | – | > 1e-06 M | –
11 | Cc1cc(C(=O)Nc2cc(NC(=O)c3cc(NC4CCN(C)CC4)cc(-n4ccnc4C)c3)ccc2C)no1 [Compound 5h, 5-methyl-N-(2-methyl-5-(3-(2-methyl-1H-imidazol-1-yl)-5-((1-methylpiperidin-4-yl)amino)benzamido)phenyl)isoxazole-3-carboxamide] | – | > 1e-06 M | –
12 | Cc1cc(C(=O)Nc2ccc(C3CCNCC3)cc2C2CCCCC2)no1 [Compound 65b, N-(2-cyclohexyl-4-(piperidin-4-yl)phenyl)-5-methylisoxazole-3-carboxamide] | > 1e-06 M | > 1e-06 M | –
13 | Cc1cc(C(=O)Nc2cc(NC(=O)c3cc(N4CCN(C)CC4)cc(-n4ccnc4C)c3)ccc2C)no1 [Compound 5g, 5-methyl-N-(2-methyl-5-(3-(2-methyl-1H-imidazol-1-yl)-5-(4-methylpiperazin-1-yl)benzamido)phenyl)isoxazole-3-carboxamide] | – | > 1e-06 M | –
14 | Cc1cc(C(=O)Nc2cc(NC(=O)c3cc(N[C@@H]4CCCN(C)C4)cc(C(F)(F)F)c3)ccc2C)no1 [Compound 5l, (R)-5-Methyl-N-(2-methyl-5-(3-((1-methylpiperidin-3-yl)amino)-5-(trifluoromethyl)benzamido)phenyl)isoxazole-3-carboxamide] | – | > 1e-06 M | –

Next, values leading:

Row | IC50 (Table 1, read-out: IC50) | IC50 [1] | IC50 (Table 2, read-out: IC50 (μm)) | SMILES
15 | < 1e-07 M | < 1e-07 M | – | Cc1cc(C(=O)Nc2ccc(C3CCCNCC3)cc2C2=CCCCC2)no1 (stereo not shown) [Compound 60c, N-(5-(azepan-4-yl)-2′,3′,4′,5′-tetrahydro-[1,1′-biphenyl]-2-yl)-5-methylisoxazole-3-carboxamide]
16 | > 1e-06 M | > 1e-06 M | – | CCN1CCC(c2ccc(NC(=O)c3cc(C)on3)c(C3CCCC3)c2)CC1 [Compound 75b, N-(2-Cyclopentyl-4-(1-ethylpiperidin-4-yl)phenyl)-5-methylisoxazole-3-carboxamide]
17 | < 1e-07 M | < 1e-07 M | – | Cc1cc(C(=O)Nc2ccc(C3CCN(C)CC3)cc2C2=CCCCC2)no1 [Compound 67b, 5-methyl-N-(5-(1-methylpiperidin-4-yl)-2′,3′,4′,5′-tetrahydro-[1,1′-biphenyl]-2-yl)isoxazole-3-carboxamide]
18 | 1e-07 to 1e-06 M | 1e-07 to 1e-06 M | – | Cc1cc(C(=O)Nc2ccc(C3CCNC3)cc2C2=CCCCC2)no1 (stereo not shown) [Compound 60a, 5-methyl-N-(5-(pyrrolidin-3-yl)-2′,3′,4′,5′-tetrahydro-[1,1′-biphenyl]-2-yl)isoxazole-3-carboxamide]
19 | 1e-07 to 1e-06 M | 1e-07 to 1e-06 M | – | Cc1cc(C(=O)Nc2ccc(C3CCCN(C)CC3)cc2C2=CCCCC2)no1 (stereo not shown) [Compound 67c, 5-methyl-N-(5-(1-methylazepan-4-yl)-2′,3′,4′,5′-tetrahydro-[1,1′-biphenyl]-2-yl)isoxazole-3-carboxamide]
20 | – | < 1e-07 M | – | Cc1cc(C(=O)Nc2ccc(C3CC[N+](C)(C)CC3)cc2C2=CCCCC2)no1 [Compound 79b, 1,1-dimethyl-4-(6-(5-methylisoxazole-3-carboxamido)-2′,3′,4′,5′-tetrahydro-[1,1′-biphenyl]-3-yl)piperidin-1-ium]
21 | < 1e-07 M | < 1e-07 M | – | Cc1cc(C(=O)Nc2ccc(C3CCNCC3)cc2C2=CCC(C)(C)CC2)no1 [Compound 64b, N-(4′,4′-dimethyl-5-(piperidin-4-yl)-2′,3′,4′,5′-tetrahydro-[1,1′-biphenyl]-2-yl)-5-methylisoxazole-3-carboxamide]
22 | 1e-07 to 1e-06 M | < 1e-07 M | – | CC(C)=CCN1CCC(c2ccc(NC(=O)c3cc(C)on3)c(C3=CCCCC3)c2)CC1 [Compound 76b, 5-methyl-N-(5-(1-(3-methylbut-2-en-1-yl)piperidin-4-yl)-2′,3′,4′,5′-tetrahydro-[1,1′-biphenyl]-2-yl)isoxazole-3-carboxamide]
23 | > 1e-06 M | > 1e-06 M | – | CCN1CCC(c2ccc(NC(=O)c3cc(C)on3)c(C3=CCCC3)c2)CC1 [Compound 71b, N-(2-(Cyclopent-1-en-1-yl)-4-(1-ethylpiperidin-4-yl)phenyl)-5-methylisoxazole-3-carboxamide]
24 | – | < 1e-07 M | – | Cc1cc(C(=O)Nc2ccc(C3CCC[N+](C)(C)CC3)cc2C2=CCCCC2)no1 (stereo not shown) [Compound 79c, 1,1-dimethyl-4-(6-(5-methylisoxazole-3-carboxamido)-2′,3′,4′,5′-tetrahydro-[1,1′-biphenyl]-3-yl)azepan-1-ium]
25 | < 1e-07 M | < 1e-07 M | – | Cc1cc(C(=O)Nc2ccc(C3CCCNCC3)cc2C2=CCC(C)(C)CC2)no1 (stereo not shown) [Compound 64c, N-(5-(azepan-4-yl)-4′,4′-dimethyl-2′,3′,4′,5′-tetrahydro-[1,1′-biphenyl]-2-yl)-5-methylisoxazole-3-carboxamide]
26 | > 1e-06 M | > 1e-06 M | – | CCN1CCC(c2ccc(NC(=O)c3cc(C)on3)c(C3CCCCC3)c2)CC1 [Compound 74b, N-(2-cyclohexyl-4-(1-ethylpiperidin-4-yl)phenyl)-5-methylisoxazole-3-carboxamide]
27 | < 1e-07 M | < 1e-07 M | – | Cc1cc(C(=O)Nc2ccc(C3CCN(CC4CC4)CC3)cc2C2=CCC(C)(C)CC2)no1 [Compound 78b, N-(5-(1-(cyclopropylmethyl)piperidin-4-yl)-4′,4′-dimethyl-2′,3′,4′,5′-tetrahydro-[1,1′-biphenyl]-2-yl)-5-methylisoxazole-3-carboxamide]
28 | < 1e-07 M | < 1e-07 M | – | CCN1CCC(c2ccc(NC(=O)c3cc(C)on3)c(C3=CCC(C)CC3)c2)CC1 (stereo not shown) [Compound 72b, N-(5-(1-Ethylpiperidin-4-yl)-4′-methyl-2′,3′,4′,5′-tetrahydro-[1,1′-biphenyl]-2-yl)-5-methylisoxazole-3-carboxamide]
29 | < 1e-07 M | < 1e-07 M | – | Cc1cc(C(=O)Nc2ccc(C3CCCN(C)CC3)cc2C2=CCC(C)(C)CC2)no1 (stereo not shown) [Compound 68c]
30 | < 1e-07 M | < 1e-07 M | – | Cc1cc(C(=O)Nc2ccc(C3CCN(CC4CC4)CC3)cc2C2=CCC(C)CC2)no1 (stereo not shown) [Compound 77b, N-(5-(1-(cyclopropylmethyl)piperidin-4-yl)-4′-methyl-2,3,4,5′-tetrahydro-[1,1′-biphenyl]-2-yl)-5-methylisoxazole-3-carboxamide]
31 | > 1e-06 M | > 1e-06 M | – | Cc1cc(C(=O)Nc2ccc(C3CCN(C)CC3)cc2C2CCCCC2)no1 [Compound 69b, N-(2-cyclohexyl-4-(1-methylpiperidin-4-yl)phenyl)-5-methylisoxazole-3-carboxamide]
32 | < 1e-07 M | < 1e-07 M | – | Cc1cc(C(=O)Nc2ccc(C3CCNCC3)cc2C2=CCC(C)CC2)no1 (stereo not shown) [Compound 63b, 5-Methyl-N-(4′-methyl-5-(piperidin-4-yl)-2′,3′,4′,5′-tetrahydro-[1,1′-biphenyl]-2-yl)isoxazole-3-carboxamide]
33 | < 1e-07 M | < 1e-07 M | – | CCN1CCC(c2ccc(NC(=O)c3cc(C)on3)c(C3=CCC(C)(C)CC3)c2)CC1 [Compound 73b, N-(5-(1-ethylpiperidin-4-yl)-4′,4′-dimethyl-2′,3′,4′,5′-tetrahydro-[1,1′-biphenyl]-2-yl)-5-methylisoxazole-3-carboxamide]
34 | – | < 1e-07 M | – | CC[N+]1(CC)CCC(c2ccc(NC(=O)c3cc(C)on3)c(C3=CCCCC3)c2)CC1 [Compound 82b, 1,1-diethyl-4-(6-(5-methylisoxazole-3-carboxamido)-2′,3′,4′,5′-tetrahydro-[1,1′-biphenyl]-3-yl)piperidin-1-ium]
